Assays:
[1] = target: Carbonic anhydrase 6 (Homo sapiens) (UniProt P23280); experiment: Activation of human recombinant carbonic anhydrase 6 by stopped flow CO2 hydration method
[2] = target: Carbonic anhydrase 13 (Mus musculus) (UniProt Q9D6N1); experiment: Activation of mouse recombinant carbonic anhydrase 13 by stopped flow CO2 hydration method
Rattus norvegicus [3] = experiment: Activation of carbonic anhydrase in Sprague-Dawley rat red blood cells at 1 mg/kg, po after 5 hrs by colorimetry relative to control; type: functional
[4] = Half life in po dosed human plasma; type: ADME, organism-based
Rattus norvegicus [5] = experiment: Activation of carbonic anhydrase in Sprague-Dawley rat red blood cells at 1 mg/kg, po after 1 hr by colorimetry relative to control; type: functional
[6] = target: Carbonic anhydrase 7 (Homo sapiens) (UniProt P43166); experiment: Activation of human recombinant carbonic anhydrase 7 by stopped flow CO2 hydration method
[7] = target: Carbonic anhydrase 1 (Homo sapiens) (UniProt P00915); experiment: Activation of human recombinant carbonic anhydrase 1 by stopped flow CO2 hydration method
[8] = target: Carbonic anhydrase 5A, mitochondrial (Homo sapiens) (UniProt P35218); experiment: Activation of human recombinant carbonic anhydrase 5A by stopped flow CO2 hydration method
[9] = target: Carbonic anhydrase 14 (Homo sapiens) (UniProt Q9ULX7); experiment: Activation of human recombinant carbonic anhydrase 14 by stopped flow CO2 hydration method
[10] = target: Carbonic anhydrase 9 (Homo sapiens) (UniProt Q16790); experiment: Activation of human recombinant carbonic anhydrase 9 catalytic domain by stopped flow CO2 hydration method
[11] = target: Carbonic anhydrase 4 (Homo sapiens) (UniProt P22748); experiment: Activation of human recombinant carbonic anhydrase 4 by stopped flow CO2 hydration method
[12] = target: Carbonic anhydrase 3 (Homo sapiens) (UniProt P07451); experiment: Activation of human recombinant carbonic anhydrase 3 by stopped flow CO2 hydration method
Rattus norvegicus [13] = experiment: Activation of carbonic anhydrase in Sprague-Dawley rat red blood cells at 1 mg/kg, po after 3 hrs by colorimetry relative to control; type: functional
[14] = target: Carbonic anhydrase 5B, mitochondrial (Homo sapiens) (UniProt Q9Y2D0); experiment: Activation of human recombinant carbonic anhydrase 5B by stopped flow CO2 hydration method
[15] = target: Carbonic anhydrase 12 (Homo sapiens) (UniProt O43570); experiment: Activation of human recombinant carbonic anhydrase 12 catalytic domain by stopped flow CO2 hydration method
[16] = target: Carbonic anhydrase 2 (Homo sapiens) (UniProt P00918); experiment: Activation of human recombinant carbonic anhydrase 2 by stopped flow CO2 hydration method

Carbonic anhydrase 6 (Homo sapiens), sequence (P23280 whole entry): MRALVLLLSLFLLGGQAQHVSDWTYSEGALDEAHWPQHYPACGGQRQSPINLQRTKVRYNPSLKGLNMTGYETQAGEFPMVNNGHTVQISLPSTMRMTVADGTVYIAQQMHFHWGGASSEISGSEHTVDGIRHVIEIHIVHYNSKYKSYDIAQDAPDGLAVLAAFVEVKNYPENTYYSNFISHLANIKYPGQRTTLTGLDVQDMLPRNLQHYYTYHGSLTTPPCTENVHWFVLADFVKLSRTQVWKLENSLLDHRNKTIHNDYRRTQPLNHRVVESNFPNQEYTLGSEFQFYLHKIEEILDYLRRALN
Carbonic anhydrase 5A, mitochondrial (Homo sapiens), sequence (P35218 whole entry): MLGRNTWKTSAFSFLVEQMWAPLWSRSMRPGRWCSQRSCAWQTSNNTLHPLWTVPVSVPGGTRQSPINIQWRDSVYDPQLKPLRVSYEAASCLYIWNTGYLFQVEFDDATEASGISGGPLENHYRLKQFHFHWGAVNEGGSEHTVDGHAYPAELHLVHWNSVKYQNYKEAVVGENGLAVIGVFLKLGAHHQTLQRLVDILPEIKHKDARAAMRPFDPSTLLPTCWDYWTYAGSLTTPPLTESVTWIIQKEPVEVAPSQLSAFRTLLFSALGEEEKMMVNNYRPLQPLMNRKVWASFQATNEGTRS
Carbonic anhydrase 4 (Homo sapiens), sequence (P22748 whole entry): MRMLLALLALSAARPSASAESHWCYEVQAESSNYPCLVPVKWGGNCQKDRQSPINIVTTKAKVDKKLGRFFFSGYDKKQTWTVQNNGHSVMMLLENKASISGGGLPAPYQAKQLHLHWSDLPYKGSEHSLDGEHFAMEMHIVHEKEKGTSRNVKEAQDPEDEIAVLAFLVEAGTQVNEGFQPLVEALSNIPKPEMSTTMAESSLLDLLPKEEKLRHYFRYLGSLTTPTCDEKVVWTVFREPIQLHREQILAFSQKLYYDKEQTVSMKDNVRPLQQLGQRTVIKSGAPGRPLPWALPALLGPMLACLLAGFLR
Carbonic anhydrase 14 (Homo sapiens), sequence (Q9ULX7 whole entry, the tested form may be a part): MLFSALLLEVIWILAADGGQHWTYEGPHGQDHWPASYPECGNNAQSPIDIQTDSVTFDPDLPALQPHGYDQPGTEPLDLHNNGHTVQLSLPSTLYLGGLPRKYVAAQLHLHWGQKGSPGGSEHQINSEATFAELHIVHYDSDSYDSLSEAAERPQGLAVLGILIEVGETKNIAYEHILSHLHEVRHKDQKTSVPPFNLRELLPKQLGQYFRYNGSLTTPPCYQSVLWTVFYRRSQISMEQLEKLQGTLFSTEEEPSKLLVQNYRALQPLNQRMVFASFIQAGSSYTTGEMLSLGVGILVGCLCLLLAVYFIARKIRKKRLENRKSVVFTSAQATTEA
Carbonic anhydrase 13 (Mus musculus), sequence (Q9D6N1 whole entry, looked up): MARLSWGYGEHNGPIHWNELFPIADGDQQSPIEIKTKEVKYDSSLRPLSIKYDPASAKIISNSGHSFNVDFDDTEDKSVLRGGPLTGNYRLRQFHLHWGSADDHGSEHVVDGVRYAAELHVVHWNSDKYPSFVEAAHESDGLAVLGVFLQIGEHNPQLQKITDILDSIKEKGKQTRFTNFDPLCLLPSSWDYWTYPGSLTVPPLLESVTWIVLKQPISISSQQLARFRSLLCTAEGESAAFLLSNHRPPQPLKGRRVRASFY
Carbonic anhydrase 3 (Homo sapiens), sequence (P07451 whole entry): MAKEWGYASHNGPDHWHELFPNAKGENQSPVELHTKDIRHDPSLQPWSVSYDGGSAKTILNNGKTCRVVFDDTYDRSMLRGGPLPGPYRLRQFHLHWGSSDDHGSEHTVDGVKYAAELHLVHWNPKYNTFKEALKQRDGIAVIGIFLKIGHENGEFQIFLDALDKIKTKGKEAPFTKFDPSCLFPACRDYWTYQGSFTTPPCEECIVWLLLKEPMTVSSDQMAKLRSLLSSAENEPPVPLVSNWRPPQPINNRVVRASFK
Carbonic anhydrase 5B, mitochondrial (Homo sapiens), sequence (Q9Y2D0 whole entry, the tested form may be a part): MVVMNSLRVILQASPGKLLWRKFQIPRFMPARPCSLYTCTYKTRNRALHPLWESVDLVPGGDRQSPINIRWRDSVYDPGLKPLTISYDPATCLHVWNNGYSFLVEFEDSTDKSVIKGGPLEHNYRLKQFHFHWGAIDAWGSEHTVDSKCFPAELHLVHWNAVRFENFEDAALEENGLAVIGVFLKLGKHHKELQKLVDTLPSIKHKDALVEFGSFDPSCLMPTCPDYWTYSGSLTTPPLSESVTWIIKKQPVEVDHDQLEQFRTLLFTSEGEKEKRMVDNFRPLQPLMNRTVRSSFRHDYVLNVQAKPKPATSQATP
Carbonic anhydrase 12 (Homo sapiens), sequence (O43570 whole entry, the tested form may be a part): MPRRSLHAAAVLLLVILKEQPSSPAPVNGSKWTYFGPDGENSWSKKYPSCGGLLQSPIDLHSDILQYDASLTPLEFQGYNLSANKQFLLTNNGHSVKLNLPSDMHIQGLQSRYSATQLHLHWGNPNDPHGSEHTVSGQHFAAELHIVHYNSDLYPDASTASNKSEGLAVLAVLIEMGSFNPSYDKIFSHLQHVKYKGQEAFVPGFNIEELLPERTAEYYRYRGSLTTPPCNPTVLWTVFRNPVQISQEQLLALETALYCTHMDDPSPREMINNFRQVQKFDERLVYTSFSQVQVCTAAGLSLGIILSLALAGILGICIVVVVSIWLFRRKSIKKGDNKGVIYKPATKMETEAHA
Carbonic anhydrase 1 (Homo sapiens), sequence (P00915 2-261 limits assumed): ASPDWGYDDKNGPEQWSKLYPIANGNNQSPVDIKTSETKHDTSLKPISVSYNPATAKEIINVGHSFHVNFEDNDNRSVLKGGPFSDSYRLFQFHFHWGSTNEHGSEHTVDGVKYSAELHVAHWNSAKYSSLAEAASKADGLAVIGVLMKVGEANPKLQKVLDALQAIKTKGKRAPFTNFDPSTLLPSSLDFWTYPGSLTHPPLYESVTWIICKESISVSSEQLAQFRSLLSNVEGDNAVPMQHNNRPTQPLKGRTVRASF
Carbonic anhydrase 7 (Homo sapiens), sequence (P43166 whole entry): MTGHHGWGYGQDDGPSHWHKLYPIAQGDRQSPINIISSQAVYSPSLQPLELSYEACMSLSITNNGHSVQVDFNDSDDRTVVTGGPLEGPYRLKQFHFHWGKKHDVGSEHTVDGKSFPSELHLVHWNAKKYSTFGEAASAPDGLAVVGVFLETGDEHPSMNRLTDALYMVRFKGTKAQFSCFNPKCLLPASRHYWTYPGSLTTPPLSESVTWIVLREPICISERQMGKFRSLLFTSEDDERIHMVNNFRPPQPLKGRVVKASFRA

With `NCCN1CCNCC1` the KA [1] was 9.54 µM.
With `CCCc1nn(C)c2c(=O)[nH]c(-c3cc(S(=O)(=O)N4CCN(C)CC4)ccc3OCC)nc12.O=C(O)CC(O)(CC(=O)O)C(=O)O` [SILDENAFIL CITRATE] the KA [2] was 27.5 µM, the KA [1] was 2.37 µM and the Activity (Rattus norvegicus [3]) was 79.19%. It also gave a half-life [4] of 240 min, an Activity (Rattus norvegicus [5]) of 84.47% and a KA [6] of 72.9 µM. It also gave a KA [7] of 1.08 µM, a KA [8] of 16.8 µM and a KA [9] of 32.4 µM. For the same molecule, the KA [10] was 34 µM, the KA [11] was 15.2 µM and the KA [12] was 13.4 µM. For the same molecule, the Activity (Rattus norvegicus [13]) was 59.6%, the KA [14] was 6.54 µM and the KA [15] was 73 µM. The KA [16] was 31.3 µM.
`NCCc1c[nH]cn1` gave a KA [1] of 6.5 µM.

Reference: ChEMBL document CHEMBL1153513, “Sildenafil is a strong activator of mammalian carbonic anhydrase isoforms I-XIV” (Bioorg Med Chem, 2009)
